Converted amounts (≈) assume the structure as drawn.
Legend:
[1] = Saturation solubility of active ingredients in 1,3-bis(1-pyrrolidonyl)butane as solvent (Example 5); assay type: physicochemical; conditions: 22 °C, organic solvent or mixture, thermodynamic from solid, stirred at room temperature for 72 hours, filtrate by UV photometry, read-out: maximum solubility at 22° C.
Experimental: It was stirred at room temperature for 72 hours.

[2] = Maximum soluble amount of active ingredient in cosolvent:water mixtures and phosphate buffer (Example 6); conditions: for cosolvent quality mixed with water compared with propylene glycol: for hydrophilic active ingredients such as paracetamol, theophylline or trimethoprim
Experimental: To 20 ml 1,3-bis(1-pyrrolidonyl)butane was added the active ingredient in an amount which is above the amount of this active ingredient able to dissolve in this volume. It was stirred at room temperature for 72 hours. As a rule, this time ensured that the saturation solubility in the medium was reached. After subsequent filtration, the content of active ingredient in the filtrate was determined by UV photometry.
e) 1,2-Propylene glycol (1,2-PG):water (1:1)
f) 1,2-Propylene glycol (1,2-PG):water (1:3)

[3] = cited from earlier work
[4] = 25% 1,2-PG (1,2-propylene glycol:water 1:3), 20 ml
[5] = 25% DHVP (1,3-bis(1-pyrrolidonyl)butane:water 1:3), 20 ml
[6] = 50% 1,2-PG (1,2-propylene glycol:water 1:1), 20 ml
[7] = 50% DHVP (1,3-bis(1-pyrrolidonyl)butane:water 1:1), 20 ml
[8] = in 20 ml 25% 1,2-PG (1,2-propylene glycol:water 1:3)
[9] = in 20 ml 25% DHVP (1,3-bis(1-pyrrolidonyl)butane:water 1:3)
[10] = in 20 ml 50% 1,2-PG (1,2-propylene glycol:water 1:1)
[11] = in 20 ml 50% DHVP (1,3-bis(1-pyrrolidonyl)butane:water 1:1)
[12] = in 20 ml phosphate buffer pH 7.0
[13] = 25% DHVC (1,3-bis(1-caprolactamyl)butane:water 1:3), 20 ml
[14] = 50% DHVC (1,3-bis(1-caprolactamyl)butane:water 1:1), 20 ml
[15] = in 20 ml 25% DHVC (1,3-bis(1-caprolactamyl)butane:water 1:3)
[16] = in 20 ml 50% DHVC (1,3-bis(1-caprolactamyl)butane:water 1:1)

| SMILES | solubility at 72 h [1] | Solubility [%] [2, 4] | Solubility [%] [2, 5] | Solubility [%] [2, 6] | Solubility [%] [2, 7] | Solubility [%] ([2]; Phosphate buffer pH 7.0, 20 ml) | Dissolved substance [2, 8] | Dissolved substance [2, 9] | Dissolved substance [2, 10] | Dissolved substance [2, 11] | Dissolved substance [2, 12] | further results |
| --- | --- | --- | --- | --- | --- | --- | --- | --- | --- | --- | --- | --- |
| CCS(=O)(=O)Oc1ccc2c(C)c(C)c(=O)oc2c1 [Esuprone] | 190 mg/mL (≈ 673 mM) |  |  |  |  |  |  |  |  |  |  |  |
| CC(CCN1CCCC1=O)N1CCCC1=O (stereo not drawn) [Example 2, 1,3-Bis-(1-pyrrolidonyl)Butane] |  |  |  |  |  |  |  |  |  |  |  | cosolvent quality mixed with water compared with propylene glycol [2]: better cosolvents |
| CC(CCN1CCCCCC1=O)N1CCCCCC1=O (stereo not drawn) [Example 4, 1,3-Bis-(1-caprolactamyl)Butane] |  |  |  |  |  |  |  |  |  |  |  | cosolvent quality mixed with water compared with propylene glycol [2]: better cosolvents |
| CC(=O)Nc1ccc(O)cc1 [Paracetamol] | 250 mg/mL (≈ 1650 mM) | 2.77% | 10.62% | 6.46% | 25.15% | 1.36% | 0.5537 g | 2.1244 g | 1.2914 g | 5.0298 g | 0.2718 g |  |
| OCC(O)CO [glycerol] |  |  |  |  |  |  |  |  |  |  |  | miscibility/solubility with fixed oils [3]: not soluble; miscibility with water ([3]; water): miscible |
| CC(O)CO (stereo not drawn) [propylene glycol] |  |  |  |  |  |  |  |  |  |  |  | miscibility/solubility with fixed oils [3]: immiscible |
| Cn1c(=O)c2[nH]cnc2n(C)c1=O [theophylline] |  | 1.00% | 1.30% | 1.54% | 1.85% | 0.59% | 0.1998 g | 0.2609 g | 0.3083 g | 0.3703 g | 0.1172 g | Solubility [%] [2, 13]: 1.55%; Solubility [%] [2, 14]: 2.74%; Dissolved substance [2, 15]: 0.3105 g; Dissolved substance [2, 16]: 0.5476 g |

The next lines start with results.

| solubility at 72 h [1] | Solubility [%] [2, 4] | Solubility [%] [2, 5] | Solubility [%] [2, 6] | Solubility [%] [2, 7] | Solubility [%] ([2]; Phosphate buffer pH 7.0, 20 ml) | Dissolved substance [2, 8] | Dissolved substance [2, 9] | Dissolved substance [2, 10] | Dissolved substance [2, 11] | Dissolved substance [2, 12] | SMILES | further results |
| --- | --- | --- | --- | --- | --- | --- | --- | --- | --- | --- | --- | --- |
| 200 mg/mL (≈ 558 mM) |  |  |  |  |  |  |  |  |  |  | C[C@]12C=CC(=O)C=C1CC[C@@H]1[C@@H]2C(=O)C[C@@]2(C)[C@H]1CC[C@]2(O)C(=O)CO [Prednisone] |  |
| 200 mg/mL (≈ 783 mM) |  |  |  |  |  |  |  |  |  |  | Nc1ccc(S(=O)(=O)Nc2nccs2)cc1 [Sulfathiazole] |  |
| 150 mg/mL (≈ 517 mM) | 0.28% | 1.03% | 0.89% | 3.55% | 0.12% | 0.0558 g | 0.2063 g | 0.1785 g | 0.7097 g | 0.0245 g | COc1cc(Cc2cnc(N)nc2N)cc(OC)c1OC [Trimethoprim] | Solubility [%] [2, 13]: 1.69%; Solubility [%] [2, 14]: 5.09%; Dissolved substance [2, 15]: 0.3382 g; Dissolved substance [2, 16]: 1.0170 g |

Source: patent US6497886B1, “1,3-bis-(N-lactamyl) propane and the pharmaceutical and cosmetic use thereof” (BASF Aktiengesellschaft, priority 1996, dated 2002)
